From paper PMC10154249, “Unique progerin C-terminal peptide ameliorates Hutchinson–Gilford progeria syndrome phenotype by rescuing BUBR1” (Nature Aging, 2023)
Ends that are not written are not given here.

Key:
[1] = test system: BUBR1–progerin interaction; assay: Immunofluorescence of BUBR1 in IMR90 cells with FTI or UPCP; format: cell-based, human
Procedure: (§1) Immunofluorescence was performed as described previously. Cells were plated on cover slips in 12-well plates, left overnight before the treatment. Cells were fixed in 1% formaldehyde in culture medium for 10 min at 37 °C and permeabilized with 0.2% Triton X-100 in PBS for 10 min at room temperature. Cells were washed twice in PBS and blocked for 1 h with 5% BSA in PBS and then incubated with primary antibodies at 4 °C overnight, washed three times in PBS and incubated with secondary antibodies for 1 h at room temperature. Cell nuclei were counterstained with a 500 nM concentration of 4,6-diamidino-2-phenylindole (DAPI) (Sigma). Images were acquired by a fluorescence microscope (OLYMPUS FV-1000, Carl Zeiss LSM880 or Leica DMi8) and analyzed with software NIS-Elements AR v.5.0.1 (Nikon), FLUOVIEW v.4.2b (OLYMPUS), ZEN v.2.3 SP1 (Carl Zeiss) and Leica Application Suite X v.3.6.0.24 (Leica). Cells were quantified by investigators who were blinded to the identity of the analyzed cell.

[2] = test system: BUBR1 / CyclinA2 in HGADFN003 cells; assay: Western blot of BUBR1 and CyclinA2 in HGADFN003 cells; format: cell-based, human; conditions: HGADFN003
Procedure: Western blot was performed as previously described. Cells were lysed in 1× Laemmli sample buffer after washing twice in cold PBS without calcium and magnesium. Protein concentrations were determined using the bicinchoninic acid (BCA) protein assay. Protein lysates were subjected to SDS–PAGE, transferred to 0.45-μm pore size hydrophobic PVDF transfer membrane (Merck Millipore), detected with the appropriate primary antibodies coupled with horseradish peroxidase-conjugated corresponding secondary antibodies, and visualized using enhanced chemiluminescence ECL reagent (GE Healthcare). The Tanon 5500 high-definition low-illumination CCD system (Tanon FLI Capture v.1.02) was used to capture chemiluminescent signals.

HGADFN003 cells [3] = assay: SA-β-gal staining of HGADFN003 cells; format: cell-based, human; conditions: for SA-β-gal positive cells: HGADFN003, Extended Data Fig. 10c
Procedure: SA-β-gal staining was performed as previously described. Cells were fixed in 0.5% glutaraldehyde for 15 min at room temperature, washed three times with PBS (pH 6.0) containing 1 mM MgCl2 and exposed overnight 37 °C to containing 1 mg ml^–1 5-bromo-4-chloro-3-indolyl-β-D-galactopyranoside (MCE, catalog no. HY-15934), 0.12 mM potassium ferrocyanide (Sigma, catalog no. P3289), 0.12 mM potassium ferricyanide (Sigma, catalog no. P8131) and 1 mM MgCl2 PBS buffer (pH 6.0). Cells were washed three times with H2O and observed under a microscope (OLYMPUS CKX53). SA-β-gal positive cells were quantified by investigators who were blinded to the identity of the analyzed cell.

HGADFN003 cells [4] = assay: Ki67 immunofluorescence of HGADFN003 cells; format: cell-based, human; conditions: for Ki67 positive cells: HGADFN003, Extended Data Fig. 10e
Procedure: as §1

[5] = in vivo; cited from earlier work
Description: (§2) At present, clinical drugs for HGPS are very rare except for Zokinvy (lonafarnib), which has been approved by the United States (US) Food and Drug Administration (FDA). […] Recently, some gene therapies for HGPS treatment have been developed. The clustered regularly interspaced short palindromic repeat–adeno-associated virus 9 system is used to reduce the expression of progerin and the adenine base editor–adeno-ass ...

HGPS cells = conditions: cited from earlier work
Description: as §2

[6] = test system: progerin–BUBR1 interaction; assay: CoIP of progerin and BUBR1 in HEK-293T cells; format: cell-based; conditions: HEK-293T cotransfected with Flag-progerin-C 5, 10, 15 μg and HA-progerin
Procedure: Detailed descriptions of CoIP were described previously[55],[56]. Cells were harvested and washed three times in cold PBS, then lysed in CoIP buffer (25 mM Tris-HCl (pH 7.5), 150 mM KCl, 5 mM EDTA, and 0.5% NP-40) plus protease inhibitor cocktail tablet (Roche). Incubate on ice and shock lysates on the vortex shaker 15 times for 30 s each. Microcentrifuge in 12,000g for 15 min at 4 °C, collect the supernatant, and incubate with 3 μg primary antibodies with gentle shaking overnight at 4 °C, followed by adding 20–40 μl Pure Proteome Protein A/G Mix Magnetic Beads (Millipore, catalog no. […]02) for 3 h. Wash the beads three times with 1 ml CoIP buffer for 8 min each, resuspend in 50 μl 1× loading buffer, and incubate at 100 °C for 8 min. Throw beads away and analyze by immunoblotting.

HEK-293T cells = assay: Immunofluorescence localization of Flag-progerin-C in HEK-293T cells; format: cell-based; conditions: Flag-progerin-C expressed in HEK-293T
Procedure: as §1

With `COC(=O)[C@H](CCSC)NC(=O)c1ccc(NC[C@@H](N)CS)cc1-c1ccccc1` [FTI-277, reference compound] as the compound, how does the “block of the interaction of BUBR1 and progerin” value [1] read?
Its value is “failed to block the interaction of BUBR1 and progerin”.

What about the “BUBR1 expression (FTI-277/UPCP comparison, words)” value [2] of the same compound?
Its value is “increasing expression of BUBR1”.

What about the “CyclinA2 expression (FTI-277/UPCP comparison, words)” value [2] of the same compound?
Its value is “increasing expression of BUBR1, CyclinA2”.

And the “SA-β-gal activity (FTI-277/UPCP comparison, words)” value (HGADFN003 cells [3]; HGADFN003)?
Its value is “decreased the activity of SA-β-gal”.

And the SA-β-gal positive cells (HGADFN003 cells [3]; replicate 1)?
The SA-β-gal positive cells was 20%.

And the SA-β-gal positive cells (HGADFN003 cells [3]; replicate 2)?
Its SA-β-gal positive cells is 15%.

What about the SA-β-gal positive cells (HGADFN003 cells [3]; replicate 3) of the same compound?
Its SA-β-gal positive cells is 13%.

What about the “Ki67 expression (FTI-277/UPCP comparison, words)” value (HGADFN003 cells [4]; HGADFN003) of the same compound?
The value was “increasing expression of BUBR1, CyclinA2 and Ki67”.

And the Ki67 positive cells (HGADFN003 cells [4]; replicate 1)?
Its Ki67 positive cells is 57%.

And the Ki67 positive cells (HGADFN003 cells [4]; replicate 2)?
The Ki67 positive cells was 61%.

What about the Ki67 positive cells (HGADFN003 cells [4]; replicate 3) of the same compound?
Its Ki67 positive cells is 75%.

For `NC(=O)N1CCC(CC(=O)N2CCC([C@H]3c4ncc(Br)cc4CCc4cc(Cl)cc(Br)c43)CC2)CC1` [Zokinvy (lonafarnib), lonafarnib], which adverse reactions [5] is on record?
The adverse reactions was “diarrhea and vomiting”.

Which “cellular HGPS aging phenotype” value (HGPS cells) does the source give for neuropeptide Y here?
Its value is “delays the cellular HGPS aging phenotype by stimulating autophagy and decreasing progerin accumulation”.

With “progerin-C: progerin C-terminal region (aa residues 565–614), expressed in cells (HHGSHCSSSGDPAEYNLRSRTVLCGTCGQPADKASASGSGAQSPQNCSIM; cysteine pairing not given here; also: 3×Flag tag, end not given here)” as the compound, how does the “competition with progerin to bind BUBR1” value [6] read?
Its value is “competes with progerin to bind BUBR1”.

What about the cellular location (HEK-293T cells) of the same compound?
Its cellular location is “distributed throughout the cell”.
